Test results published in patent US9932324B2, “Substituted benzimidazolium compounds useful in the treatment of respiratory diseases” (Boehringer Ingelheim International GmbH, priority 2015, dated 2018).

Columns and labels:
[1] = target: T1, ENaC (Epithelial Sodium Channel) in mouse kidney M-1 cells (Mus musculus, UniProt Q61180+Q9WU38+Q9WU39); assay: Ussing Chamber assay (short circuit current, amiloride sensitive I_SC); type: cell-based; conditions: apical administration, 37° C.
T1 construct: Mouse kidney M-1 cells were cultivated in DMEM containing 5% FCS and 5 μM dexamethasone; endogenous in cells; host or cells: mouse kidney M-1 cells
T1 sequence (Q61180 1-699): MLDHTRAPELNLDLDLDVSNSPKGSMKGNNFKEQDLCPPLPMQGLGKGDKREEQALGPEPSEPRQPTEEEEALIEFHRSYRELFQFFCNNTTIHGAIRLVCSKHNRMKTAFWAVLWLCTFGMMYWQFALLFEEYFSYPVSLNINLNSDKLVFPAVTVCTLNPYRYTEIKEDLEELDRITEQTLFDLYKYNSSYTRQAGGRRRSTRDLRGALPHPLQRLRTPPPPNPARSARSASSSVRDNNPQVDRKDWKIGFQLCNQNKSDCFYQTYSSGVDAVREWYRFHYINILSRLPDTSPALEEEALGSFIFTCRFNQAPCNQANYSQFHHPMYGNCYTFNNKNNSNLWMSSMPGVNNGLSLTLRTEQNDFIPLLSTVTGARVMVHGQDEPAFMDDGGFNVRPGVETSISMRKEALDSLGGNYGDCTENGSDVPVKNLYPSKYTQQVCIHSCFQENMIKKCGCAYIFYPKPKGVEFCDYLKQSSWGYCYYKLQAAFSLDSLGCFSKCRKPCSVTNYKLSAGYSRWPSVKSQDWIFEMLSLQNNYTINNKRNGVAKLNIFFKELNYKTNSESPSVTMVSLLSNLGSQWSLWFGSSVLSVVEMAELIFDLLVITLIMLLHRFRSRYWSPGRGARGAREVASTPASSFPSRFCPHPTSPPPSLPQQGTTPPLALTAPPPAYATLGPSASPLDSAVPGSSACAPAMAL
T1 sequence (Q9WU38 1-638): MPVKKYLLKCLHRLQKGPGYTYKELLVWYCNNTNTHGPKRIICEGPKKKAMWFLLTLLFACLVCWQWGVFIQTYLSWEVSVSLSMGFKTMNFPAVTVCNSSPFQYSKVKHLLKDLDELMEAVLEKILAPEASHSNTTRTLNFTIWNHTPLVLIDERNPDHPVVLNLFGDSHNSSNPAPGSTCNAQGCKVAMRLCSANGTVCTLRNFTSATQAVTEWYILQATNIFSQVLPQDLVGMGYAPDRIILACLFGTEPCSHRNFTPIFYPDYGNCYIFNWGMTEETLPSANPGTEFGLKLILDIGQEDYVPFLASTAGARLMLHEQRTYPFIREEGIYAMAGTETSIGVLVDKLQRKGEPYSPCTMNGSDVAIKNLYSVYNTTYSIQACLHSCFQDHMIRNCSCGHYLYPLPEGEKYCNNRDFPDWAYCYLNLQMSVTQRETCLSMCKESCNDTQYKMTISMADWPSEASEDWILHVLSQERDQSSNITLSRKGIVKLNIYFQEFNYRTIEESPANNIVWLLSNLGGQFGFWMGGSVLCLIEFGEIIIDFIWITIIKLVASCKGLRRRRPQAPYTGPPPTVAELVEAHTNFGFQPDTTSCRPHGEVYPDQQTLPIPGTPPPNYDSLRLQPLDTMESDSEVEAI
T1 sequence (Q9WU39 1-655): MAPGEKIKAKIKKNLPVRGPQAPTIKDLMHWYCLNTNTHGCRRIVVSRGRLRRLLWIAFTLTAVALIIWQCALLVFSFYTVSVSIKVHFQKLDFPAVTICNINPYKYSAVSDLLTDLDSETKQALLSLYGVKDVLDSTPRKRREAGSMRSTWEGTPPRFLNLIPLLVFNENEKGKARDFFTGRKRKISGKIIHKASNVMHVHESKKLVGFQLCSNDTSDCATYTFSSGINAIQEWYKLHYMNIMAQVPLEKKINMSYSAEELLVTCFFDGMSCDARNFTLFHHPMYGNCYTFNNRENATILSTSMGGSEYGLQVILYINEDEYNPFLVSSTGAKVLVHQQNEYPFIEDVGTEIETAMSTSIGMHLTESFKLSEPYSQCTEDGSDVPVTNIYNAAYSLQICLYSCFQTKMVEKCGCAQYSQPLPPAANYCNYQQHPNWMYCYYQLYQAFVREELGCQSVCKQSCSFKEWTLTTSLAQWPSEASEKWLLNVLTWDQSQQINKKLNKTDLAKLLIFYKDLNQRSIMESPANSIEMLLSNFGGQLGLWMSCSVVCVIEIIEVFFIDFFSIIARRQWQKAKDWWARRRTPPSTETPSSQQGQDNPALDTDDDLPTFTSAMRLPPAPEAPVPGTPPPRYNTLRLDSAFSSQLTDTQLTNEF
Procedure: The IC50 values of the example compounds given above were determined in the Ussing Chamber assay.
Ussing Chamber: Mouse kidney M-1 cells were cultivated in DMEM containing 5% FCS and 5 μM dexamethasone for 10 to 12 days on polyester transwell filters. Filters were inserted into a teflon-coated well-plate which fit into the ussing chamber system. Prior to measurement the medium of M-1 cells was replaced with Caco-2 transport buffer (Invitrogen, Germany). During measurements, the Ussing chamber temperature was kept at 37° C. Short circuit currents (I_sc) were measured in the voltage-clamp mode with the software package Lab View for data acquisition and analysis. The transepithelial electrical resistance (TEER) was determined by the application of voltage steps of ±5 mV every 5 sec. Compounds were administered at a final concentration of 3 μM or at increasing concentrations (1-3-10 μM) to the apical solution. At the end of each experiment the amiloride sensitive I_SC was measured by adding 3 μM amiloride to the apical compartment. Results are expressed as inhibition in percent of the amiloride effect or as IC50.

[2] = Permeability in CALU-3 cells; type: in vitro ADME; conditions: human, CALU-3 monolayers, pH 7.4, 37° C., 10 μM compound; for Papp A→B at 90 min, 10 μM: apical-to-basal; for Papp B→A at 90 min, 10 μM: basal-to-apical
Procedure: Permeability in CALU-3 Cells:
Permeability measurements across polarized, confluent CALU-3 cell monolayers grown on permeable filter supports are used to provide information on the potential of a compound to pass the lung epithelium. Apparent permeability coefficients (Papp) of the compounds across the CALU-3 cell monolayers are measured (pH 7.4, 37° C.) in apical-to-basal (AB) and basal-to-apical (BA) transport direction.
CALU-3 cells (1-2×10^5 cells/1 cm^2 area) are seeded on filter inserts (Costar transwell polycarbonate filters, 0.4 μm pore size) and cultured (for 10-12 days DMEM) until tight monolayers are formed. Compounds of interest are dissolved in appropriate solvent (DMSO, 10 mM stock solution). Stock solutions are diluted with HTP-4 buffer (128.13 mM NaCl, 5.36 mM KCl, 1 mM MgSO4, 1.8 mM CaCl2, 4.17 mM NaHCO3, 1.19 mM Na2HPO4 x 7H2O, 0.41 mM NaH2PO4xH2O, 15 mM HEPES, 20 mM glucose, 0.25% BSA, pH 7.4) to prepare the transport solutions (10 μM compound, final DMSO <=0.5%). The transport solution (TL) is applied to the apical or basolateral donor side for measuring A-B or B-A permeability (3 filter replicates), respectively. The receiver side contains the same buffer as the donor side. After 30 min of accommodation, samples are collected at the start t0=0 min and at the end of the experiment tn=90 min from the donor and at 0, 30, 60, and 90 min also from the receiver chamber. Volume removed is […] by HTP-4 buffer. The compound concentration in the samples is measured by HPLC-MS/MS or scintillation counting. The permeability coefficient (Papp) and efflux ratio are calculated according to: Papp [cm/s]=(concentration receiver [nM]*volume receiver [mL]/time interval [sec])*(1/filter area)*(1/donor concentration [nM]).

IC50 [1] | Papp A→B at 90 min, 10 μM [2] | Papp B→A at 90 min, 10 μM [2] | SMILES
1 nM | 0.3 ×10⁻⁶ cm/s | 0.3 ×10⁻⁶ cm/s | CC[n+]1c(CNC(=O)c2nc(Cl)c(N)nc2N)n(C[C@@H]2CCCO2)c2cccc(OCC(=O)NC3CCNCC3)c21.O=C(O)C(F)(F)F.O=C([O-])C(F)(F)F [Example 4.01]
31 nM | 0.3 ×10⁻⁶ cm/s | 0.5 ×10⁻⁶ cm/s | CC[n+]1c(CNC(=O)c2nc(Cl)c(N)nc2N)n(C[C@@H]2CCCO2)c2cccc(OCC(=O)N(C)Cc3nc(C)ccc3[O-])c21 [Example 1.03]
2 nM |  |  | CCn1c(CNC(=O)c2nc(Cl)c(N)nc2N)[n+](CC)c2c(C(=O)N(C)Cc3nc(C)ccc3O)cccc21 [Example 3.01]
5 nM |  |  | CCn1c(CNC(=O)c2nc(Cl)c(N)nc2N)[n+](CC)c2c(C(=O)NCCCNC(=O)OC(C)(C)C)cccc21 [Example 3.03]
16 nM |  |  | CC[n+]1c(CNC(=O)c2nc(Cl)c(N)nc2N)n(CCOCCO)c2cccc(OC(CO)CO)c21 [Example 5.01]
24 nM | 0.2 ×10⁻⁶ cm/s | 0.2 ×10⁻⁶ cm/s | CC[n+]1c(CNC(=O)c2nc(Br)c(N)nc2N)n(C[C@@H]2CCCO2)c2cccc(OCC(=O)N3C[C@H](O)[C@@H](O)C3)c21.O=C([O-])C(F)(F)F [Example 2.01]
36 nM |  |  | CC[n+]1c(CNC(=O)c2nc(Cl)c(N)nc2N)n(C[C@@H]2CCCO2)c2cccc(OCC(=O)N3C[C@H](O)[C@@H](O)C3)c21 [Example 1.01]
3 nM | 0.2 ×10⁻⁶ cm/s | 0.1 ×10⁻⁶ cm/s | CCn1c(CNC(=O)c2nc(Cl)c(N)nc2N)[n+](CC)c2c(C(=O)N3CCNCC3)cccc21.[Cl-] [Example 4.02]
3 nM |  |  | CCn1c(CNC(=O)c2nc(Cl)c(N)nc2N)[n+](CC)c2c(C(=O)N3CCN(C(=O)OC(C)(C)C)CC3)cccc21 [Example 3.04]
5 nM | 0.08 ×10⁻⁶ cm/s | 0.1 ×10⁻⁶ cm/s | CCn1c(CNC(=O)c2nc(Cl)c(N)nc2N)[n+](CC)c2c(C(=O)NC3CCNCC3)cccc21.[Cl-] [Example 4.03]
5 nM | 0.1 ×10⁻⁶ cm/s | 0.09 ×10⁻⁶ cm/s | CCn1c(CNC(=O)c2nc(Cl)c(N)nc2N)[n+](CC)c2c(C(=O)NCCCN)cccc21.Cl.[Cl-] [Example 6.01]
11 nM |  |  | CC[n+]1c(CNC(=O)c2nc(Cl)c(N)nc2N)n(CCOCCO)c2cccc(OCC(=O)NC3CCNCC3)c21 [Example 7.01]
3 nM |  |  | CCn1c(CNC(=O)c2nc(Cl)c(N)nc2N)[n+](CC)c2c(C(=O)NC3CCN(C(=O)OC(C)(C)C)CC3)cccc21 [Example 3.02]
6 nM | 0.04 ×10⁻⁶ cm/s | 0.06 ×10⁻⁶ cm/s | CCn1c(CNC(=O)c2nc(Cl)c(N)nc2N)[n+](CC)c2c(C(=O)NCCN(C)C)cccc21.[Cl-] [Example 3.05]
2 nM |  |  | CC[n+]1c(CNC(=O)c2nc(Cl)c(C)nc2N)n(C[C@@H]2CCCO2)c2cccc(OCC(=O)NC3CCN(C(=O)OC(C)(C)C)CC3)c21 [Example 1.07]
